Measurements: US20170275298A1, “INHIBITORS OF THE RENAL OUTER MEDULLARY POTASSIUM CHANNEL” (Merck Sharp & Dohme Corp., priority 2014, published 2017)

Molecular target: T1, hROMK (hKir1.1) (Homo sapiens, UniProt P48048)
T1 construct: expressed in transfected cells
T1 sequence (P48048 1-391): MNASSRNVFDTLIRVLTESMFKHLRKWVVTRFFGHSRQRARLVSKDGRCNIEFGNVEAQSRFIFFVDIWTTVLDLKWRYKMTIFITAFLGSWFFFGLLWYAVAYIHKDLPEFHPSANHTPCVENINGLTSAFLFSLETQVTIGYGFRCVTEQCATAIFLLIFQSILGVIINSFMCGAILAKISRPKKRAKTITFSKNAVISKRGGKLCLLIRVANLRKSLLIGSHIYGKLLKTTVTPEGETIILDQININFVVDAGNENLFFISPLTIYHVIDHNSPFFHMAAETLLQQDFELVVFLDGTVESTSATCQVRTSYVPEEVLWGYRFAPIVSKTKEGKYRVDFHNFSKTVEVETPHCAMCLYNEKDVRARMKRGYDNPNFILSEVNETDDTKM
Assay: Thallium Flux Assay (ROMK channel functional thallium flux assay)
Assay type: cell-based
Details: HEK293 cells stably expressing hROMK (hKir1.1); FluxOR thallium flux, FLIPR-Tetra, 30 min compound incubation; read-out: ROMK TI IC50
How it was run: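 HEK293 cells stably expressing hROMK (hKir1.1) loaded with FluxOR dye 90 min at ambient temperature, then compound 30 min before thallium/potassium stimulant (final 3 mM Tl/0.3 mM K). ROMK-sensitive flux defined by 3 μM standard inhibitor; data as % fluorescence change.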

IC50 [nM] | Structure (SMILES)
967 | Cc1c([C@@H](O)CN2CCC3(CC2)CCN(c2ncc(C(F)(F)F)cc2F)CC3)ccc2c1COC2=O [Example 119, (R)-5-(2-(9-(3-fluoro-5-(trifluoromethyl)pyridin-2-yl)-3,9-diazaspiro[5.5]undecan-3-yl)-1-hydroxyethyl)-4-methylisobenzofuran-1(3H)-one]
236 | Cc1c([C@@H](O)CN2CCC3(CC2)CCN(c2cnc(C(=O)O)cn2)CC3)ccc2c1COC2=O [Example 120, (R)-5-(9-(2-hydroxy-2-(4-methyl-1-oxo-1,3-dihydroisobenzofuran-5-yl)ethyl)-3,9-diazaspiro[5.5]undecan-3-yl)pyrazine-2-carboxylic acid]
314 | Cc1c([C@@H](O)CN2CCC3(CC2)CCN(c2cncc(C(=O)O)n2)CC3)ccc2c1COC2=O [Example 121, (R)-6-(9-(2-hydroxy-2-(4-methyl-1-oxo-1,3-dihydroisobenzofuran-5-yl)ethyl)-3,9-diazaspiro[5.5]undecan-3-yl)pyrazine-2-carboxylic acid]
160 | Cc1c([C@@H](O)CN2CCC3(CC2)CCN(c2nccnc2N)CC3)ccc2c1COC2=O [Example 122, (R)-5-(2-(9-(3-aminopyrazin-2-yl)-3,9-diazaspiro[5.5]undecan-3-yl)-1-hydroxyethyl)-4-methylisobenzofuran-1(3H)-one]
8.45 | Cc1c([C@@H](O)CN2CCC3(CC2)CCN(c2ccc(Cl)nn2)CC3)ccc2c1COC2=O [Example 123, (R)-5-(2-(9-(6-chloropyridazin-3-yl)-3,9-diazaspiro[5.5]undecan-3-yl)-1-hydroxyethyl)-4-methylisobenzofuran-1(3H)-one]
37.1 | Cc1ccc(N2CCC3(CCN(C[C@H](O)c4ccc5c(c4C)COC5=O)CC3)CC2)nn1 [Example 124, (R)-5-(1-hydroxy-2-(9-(6-methylpyridazin-3-yl)-3,9-diazaspiro[5.5]undecan-3-yl)ethyl)-4-methylisobenzofuran-1(3H)-one]
492 | Cc1c([C@@H](O)CN2CCC3(CC2)CCN(c2cnc(C(F)(F)F)cn2)CC3)ccc2c1COC2=O [Example 125, (R)-5-(1-hydroxy-2-(9-(5-(trifluoromethyl)pyrazin-2-yl)-3,9-diazaspiro[5.5]undecan-3-yl)ethyl)-4-methylisobenzofuran-1(3H)-one]
281 | Cc1c([C@@H](O)CN2CCC3(CC2)CCN(c2cncc(Cl)n2)CC3)ccc2c1COC2=O [Example 126, (R)-5-(2-(9-(6-chloropyrazin-2-yl)-3,9-diazaspiro[5.5]undecan-3-yl)-1-hydroxyethyl)-4-methylisobenzofuran-1(3H)-one]
29.9 | Cc1c([C@@H](O)CN2CCC3(CC2)CCN(c2cnc(Br)cn2)CC3)ccc2c1COC2=O [Example 127, (R)-5-(2-(9-(5-bromopyrazin-2-yl)-3,9-diazaspiro[5.5]undecan-3-yl)-1-hydroxyethyl)-4-methylisobenzofuran-1(3H)-one]
581 | Cc1nccnc1N1CCC2(CCN(C[C@H](O)c3ccc4c(c3C)COC4=O)CC2)CC1 [Example 128, (R)-5-(1-hydroxy-2-(9-(3-methylpyrazin-2-yl)-3,9-diazaspiro[5.5]undecan-3-yl)ethyl)-4-methylisobenzofuran-1(3H)-one]
68.3 | Cc1c([C@@H](O)CN2CCC3(CC2)CCN(c2cncc(N)n2)CC3)ccc2c1COC2=O [Example 129, (R)-5-(2-(9-(6-aminopyrazin-2-yl)-3,9-diazaspiro[5.5]undecan-3-yl)-1-hydroxyethyl)-4-methylisobenzofuran-1(3H)-one]
553 | Cc1cc(N2CCC3(CCN(C[C@H](O)c4ccc5c(c4C)COC5=O)CC3)CC2)nnc1Cl [Example 130, (R)-5-(2-(9-(6-chloro-5-methylpyridazin-3-yl)-3,9-diazaspiro[5.5]undecan-3-yl)-1-hydroxyethyl)-4-methylisobenzofuran-1(3H)-one]

Further lines, the compound ahead of its results:

Structure (SMILES) | IC50 [nM]
Cc1c([C@@H](O)CN2CCC3(CC2)CCN(c2sncc2Br)C3=O)ccc2c1COC2=O [Example 103, (R)-2-(4-bromoisothiazol-5-yl)-8-(2-hydroxy-2-(4-methyl-1-oxo-1,3-dihydroisobenzofuran-5-yl)ethyl)-2,8-diazaspiro[4.5]decan-1-one] | 61.4
Cc1cnsc1N1CCC2(CCN(C[C@H](O)c3ccc4c(c3C)COC4=O)CC2)C1=O [Example 104, (R)-8-(2-hydroxy-2-(4-methyl-1-oxo-1,3-dihydroisobenzofuran-5-yl)ethyl)-2-(4-methylisothiazol-5-yl)-2,8-diazaspiro[4.5]decan-1-one] | 65.5
Cc1c([C@@H](O)CN2CCC3(CC2)CCN(c2sncc2Cl)C3=O)ccc2c1COC2=O [Example 105, (R)-2-(4-chloroisothiazol-5-yl)-8-(2-hydroxy-2-(4-methyl-1-oxo-1,3-dihydroisobenzofuran-5-yl)ethyl)-2,8-diazaspiro[4.5]decan-1-one] | 54.2
Cc1c([C@@H](O)CN2CCC3(CC2)NCCN(c2ccc(=O)n(C)n2)C3=O)ccc2c1COC2=O [Example 106, (R)-9-(2-hydroxy-2-(4-methyl-1-oxo-1,3-dihydroisobenzofuran-5-yl)ethyl)-4-(1-methyl-6-oxo-1,6-dihydropyridazin-3-yl)-1,4,9-triazaspiro[5.5]undecan-5-one] | 361
Cc1c([C@@H](O)[C@H](C)N2CCC3(CCN(c4ccc(=O)n(C)n4)C3=O)CC2)ccc2c1COC2=O [Example 107, 8-((1R,2S)-1-hydroxy-1-(4-methyl-1-oxo-1,3-dihydroisobenzofuran-5-yl)propan-2-yl)-2-(1-methyl-6-oxo-1,6-dihydropyridazin-3-yl)-2,8-diazaspiro[4.5]decan-1-one] | 42
Cc1c([C@@H](O)[C@@H](C)N2CCC3(CCN(c4ccc(=O)n(C)n4)C3=O)CC2)ccc2c1COC2=O [Example 108, 8-((1R,2R)-1-hydroxy-1-(4-methyl-1-oxo-1,3-dihydroisobenzofuran-5-yl)propan-2-yl)-2-(1-methyl-6-oxo-1,6-dihydropyridazin-3-yl)-2,8-diazaspiro[4.5]decan-1-one] | 56
Cc1c(C(O)C(C)N2CCC3(CCN(c4ccc(=O)n(C)n4)C3=O)CC2)ccc2c1COC2=O [Example 109, 8-41S,2S)-1-hydroxy-1-(4-methyl-1-oxo-1,3-dihydroisobenzofuran-5-yl)propan-2-yl)-2-(1-methyl-6-oxo-1,6-dihydropyridazin-3-yl)-2,8-diazaspiro[4.5]decan-1-one] | 20
Cc1c([C@@H](O)CN2CCC3(CC2)CCN(c2cnn(C)c(=O)c2)CC3)ccc2c1COC2=O [Example 110, (R)-5-(9-(2-hydroxy-2-(4-methyl-1-oxo-1,3-dihydroisobenzofuran-5-yl)ethyl)-3,9-diazaspiro[5.5]undecan-3-yl)-2-methylpyridazin-3(2H)-one] | 279
Cc1c([C@@H](O)CN2CCC3(CC2)CCN(c2cncc(F)c2)CC3)ccc2c1COC2=O [Example 111, 9-(5-fluoropyridin-3-yl)-3-[(2R)-2-hydroxy-2-(4-methyl-1-oxo-1,3-dihydro-2-benzofuran-5-yl)ethyl]-9-aza-3-azoniaspiro[5.5]undecane] | 185
Cc1c([C@@H](O)CN2CCC3(CC2)CCN(c2ccccn2)CC3)ccc2c1COC2=O [Example 112, 3-[(2R)-2-hydroxy-2-(4-methyl-1-oxo-1,3-dihydro-2-benzofuran-5-yl)ethyl]-9-pyridin-2-yl-9-aza-3-azoniaspiro[5.5]undecane] | 282
Cc1c([C@@H](O)CN2CCC3(CC2)CCN(c2ccc(=O)n(C)n2)CC3)ccc2c1COC2=O [Example 113, (R)-6-(9-(2-hydroxy-2-(4-methyl-1-oxo-1,3-dihydroisobenzofuran-5-yl)ethyl)-3,9-diazaspiro[5.5]undecan-3-yl)-2-methylpyridazin-3(2H)-one] | 616
COc1ccnc(N2CCC3(CCN(C[C@H](O)c4ccc5c(c4C)COC5=O)CC3)CC2)n1 [Example 114, (R)-5-(1-hydroxy-2-(9-(4-methoxypyrimidin-2-yl)-3,9-diazaspiro[5.5]undecan-3-yl)ethyl)-4-methylisobenzofuran-1(3H)-one] | 384
Cc1c([C@@H](O)CN2CCC3(CC2)CCN(c2ccc(C(F)(F)F)cn2)CC3)ccc2c1COC2=O [Example 115, (R)-5-(1-hydroxy-2-(9-(5-(trifluoromethyl)pyridin-2-yl)-3,9-diazaspiro[5.5]undecan-3-yl)ethyl)-4-methylisobenzofuran-1(3H)-one] | 225
Cc1c([C@@H](O)CN2CCC3(CC2)CCN(c2cnccn2)CC3)ccc2c1COC2=O [Example 116, (R)-5-(1-hydroxy-2-(9-(pyrazin-2-yl)-3,9-diazaspiro[5.5]undecan-3-yl)ethyl)-4-methylisobenzofuran-1(3H)-one] | 6.28
Cc1c([C@@H](O)CN2CCC3(CC2)CCN(c2cc(F)ncn2)CC3)ccc2c1COC2=O [Example 117, (R)-5-(2-(9-(6-fluoropyrimidin-4-yl)-3,9-diazaspiro[5.5]undecan-3-yl)-1-hydroxyethyl)-4-methylisobenzofuran-1(3H)-one] | 403
COc1cnc(N2CCC3(CCN(C[C@H](O)c4ccc5c(c4C)COC5=O)CC3)CC2)nc1 [Example 118, (R)-5-(1-hydroxy-2-(9-(5-methoxypyrimidin-2-yl)-3,9-diazaspiro[5.5]undecan-3-yl)ethyl)-4-methylisobenzofuran-1(3H)-one] | 125
